Test results: publication PMC9962921, “Interlaboratory Study to Evaluate a Testing Protocol for the Safety of Food Packaging Coatings” (Toxics, 2023)
Read-outs that look alike come from different tables or passages of the source.

What was measured:
[1] = target: T1, Aryl hydrocarbon Receptor (AhR) (Rattus norvegicus, UniProt P41738); experiment: AhR (PAH) CALUX reporter gene assay; conditions: EC50 AhR reference compound (mean)
T1 sequence (P41738 10-853): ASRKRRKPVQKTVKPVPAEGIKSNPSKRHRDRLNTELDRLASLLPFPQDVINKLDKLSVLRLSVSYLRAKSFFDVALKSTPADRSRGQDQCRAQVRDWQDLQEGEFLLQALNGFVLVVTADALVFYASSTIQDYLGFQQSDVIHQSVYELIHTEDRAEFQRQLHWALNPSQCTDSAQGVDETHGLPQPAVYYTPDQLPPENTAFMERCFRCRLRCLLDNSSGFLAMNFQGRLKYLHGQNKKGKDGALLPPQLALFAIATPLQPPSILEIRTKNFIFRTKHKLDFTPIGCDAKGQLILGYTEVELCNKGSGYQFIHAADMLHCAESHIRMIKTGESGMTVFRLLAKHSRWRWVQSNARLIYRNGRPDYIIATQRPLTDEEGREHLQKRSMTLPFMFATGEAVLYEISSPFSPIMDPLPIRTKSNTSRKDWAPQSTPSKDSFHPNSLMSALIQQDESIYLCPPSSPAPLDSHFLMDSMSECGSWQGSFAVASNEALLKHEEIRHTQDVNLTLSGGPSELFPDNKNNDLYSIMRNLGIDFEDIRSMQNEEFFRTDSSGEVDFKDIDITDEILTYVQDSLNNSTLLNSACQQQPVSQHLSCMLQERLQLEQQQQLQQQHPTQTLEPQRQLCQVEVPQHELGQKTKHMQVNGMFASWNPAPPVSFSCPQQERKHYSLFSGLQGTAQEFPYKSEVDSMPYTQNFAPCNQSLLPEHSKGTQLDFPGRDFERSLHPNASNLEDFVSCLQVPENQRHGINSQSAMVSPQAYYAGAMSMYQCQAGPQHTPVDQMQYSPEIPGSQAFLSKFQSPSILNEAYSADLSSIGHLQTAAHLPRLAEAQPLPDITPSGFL
Method: Briefly, cells were seeded in a 96-well plate (VWR, Dietikon, Switzerland) and incubated for 24 h at 37 °C, 5% CO2 and 100% humidity. […] In addition, a serial dilution of each of the different migrates were exposed in triplicates. After 24 h of exposure for cytotoxicity, ERα, AR and 4 h of exposure for poly-aromatic hydrocarbons (PAH) of exposure, the luciferase activity is measured with a luminometer plate reader (Mithras, Berthold, Germany).
Relative luminescence units obtained were processed as described by proprietary calculation template (BDS) (Amsterdam, The Netherlands). Receptor-binding activation was quantified as the amount of relative luciferase units (RLU) emitted after samples’ exposure. The signal is proportional to the amount of ligand-specific receptor-binding activation. After normalization to solvent control (DMSO) the percentage of relative induction (RI) or relative inhibition (RInh) was calculated for the selected nuclear receptors and the cell viability. The samples were then expressed as percentage of the maximum reference compound response. All dose responses and dilutions were performed in technical triplicates. […] For the PAH CALUX bioassay, the threshold level was set as 10%. […] Dose–response obtained between laboratories C and D was compared.

[2] = target: T1, Aryl hydrocarbon Receptor (AhR); conditions: read-out: EC50 standard range, AhR reference compound; historical range; ref BDS BioDetection Systems historical data; cited from earlier work

In the case of `c1ccc2c(c1)cc1ccc3cccc4ccc2c1c34` [Benzo(a)pyrene, benzo[a]pyrene], the EC50 ([1]; LAB C) is given as 3.3 nM, the EC50 ([1]; LAB D) is given as 7.2 nM and the EC50 [2] is given as 1.6 to 16 nM.
